In this test the target is Prothrombin (Homo sapiens) (UniProt P00734). Nature of the test: Binding affinity against thrombin.

The results in this text go back to ChEMBL document CHEMBL1135481, “SMall Molecule Growth 2001 (SMoG2001): an improved knowledge-based scoring function for protein-ligand interactions” (J Med Chem, 2002).

In the case of `NC(N)=NCCC[C@H](NC(=O)[C@@H]1CCCN1C(=O)C(N)Cc1ccccc1)C(=O)O` (stereo in doubt), the Log Kd is -6.24.
